The record followed here is patent publication US20160039880A1 (priority 2012, published 2016).

Data set [1] addresses Calcineurin (Homo sapiens, UniProt P62937+P63098+Q08209). Briefly: Calcineurin Phosphatase (CaN) Assay with Cyp A (+CypA). Particulars: read-out: Calcineurin Phosphatase (CaN) Assay (+CypA) IC50, in the presence of Cyp A.
Data set [2] has as its target T1, Human recombinant cyclophilin A (Cyp A) (Homo sapiens, UniProt P62937). Briefly: Protease-free PPIase assay.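 Further: cis to trans isomerization of SUC-AAPF-pNA by 2 nM enzyme, read as absorbance at 330 nm over 300 s at 10 °C, catalytic rate corrected for uncatalyzed background.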 Particulars: read-out: Protease-free PPIase Assay Ki.
Data set [3] in a line: Water Solubility Assay (measured in pH 7.8 buffer).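 On all read-outs here: precipitation onset detected as rise in absorbance at 650 nm across increasing concentrations, after shaking for 18 h, blank wells receiving DMSO only.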 The data set is classed as physicochemical. Particulars: 35 mM HEPES pH 7.8, 1% DMSO, 25 °C, 18 h; for solubility at 18 h: read-out: Water Solubility Assay, concentration at which the compound remains in solution.
Data set [4] has as its target T1, Human recombinant cyclophilin A (Cyp A).
Where [5] appears, read: Cyclophilin A (Cyp A) inhibitory activity.

Where two headings read alike, the source gives them in different places. Some results are limits rather than exact numbers.

T1 sequence (P62937 whole entry): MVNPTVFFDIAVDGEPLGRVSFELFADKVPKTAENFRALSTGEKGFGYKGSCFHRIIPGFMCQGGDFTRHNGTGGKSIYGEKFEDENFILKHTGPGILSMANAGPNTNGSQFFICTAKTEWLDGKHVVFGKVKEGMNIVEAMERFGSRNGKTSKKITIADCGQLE
Sequence of Calcineurin (P63098 whole entry, other chains not shown): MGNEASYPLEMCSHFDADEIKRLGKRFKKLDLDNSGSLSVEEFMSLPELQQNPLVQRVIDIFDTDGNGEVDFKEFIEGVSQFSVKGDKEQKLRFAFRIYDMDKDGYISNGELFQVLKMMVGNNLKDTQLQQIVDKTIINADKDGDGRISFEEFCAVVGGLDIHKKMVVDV
Sequence of Calcineurin (P62937 whole entry, other chains not shown): as the sequence (P62937 whole entry) above

Turning to `CCC1NC(=O)C(C(O)C(C)CCN2CCCCC2C(F)(F)F)N(C)C(=O)C(C(C)C)N(C)C(=O)C(CC(C)C)N(C)C(=O)C(CC(C)C)N(C)C(=O)C(C)NC(=O)C(C)NC(=O)C(CC(C)C)N(C)C(=O)C(C(C)C)NC(=O)C(CC(C)C)N(C)C(=O)C(C)N(C)C1=O` (mixture of isomers) [Compound EB, [(3R,4R,5S)-4-Hydroxy-3-methyl-5-(methylamino)-1-(2-trifluoromethyl-piperidin-1-yl)-hexanoic acid]^1[(R)-methyl-Sar]^3 cyclosporin A], the IC50 in data set [1] was above 10000 nM. In data set [2] (setting [5]), the Ki was 3.7 nM.

As for `CCC1NC(=O)C(C(O)C(C)CCN2CCOCC2C(F)(F)F)N(C)C(=O)C(C(C)C)N(C)C(=O)C(CC(C)C)N(C)C(=O)C(CC(C)C)N(C)C(=O)C(C)NC(=O)C(C)NC(=O)C(CC(C)C)N(C)C(=O)C(C(C)C)NC(=O)C(CC(C)C)N(C)C(=O)C(C)N(C)C1=O` (mixture of isomers) [Compound EC, [(3R,4R,5S)-4-Hydroxy-3-methyl-5-(methylamino)-1-(3-trifluoromethyl-morpholin-4-yl)-hexanoic acid]^1[(R)-methyl-Sar]^3 cyclosporin A], the IC50 in data set [1] is above 10000 nM. Besides, the Ki in data set [2] (setting [5]) was 5.2 nM. On to `CC[C@H]1NC(=O)[C@@H]([C@H](O)[C@H](C)CCN2C[C@H]3CN(C)C[C@H]3C2)N(C)C(=O)[C@@H](C(C)C)N(C)C(=O)[C@@H](CC(C)C)N(C)C(=O)[C@@H](CC(C)C)N(C)C(=O)[C@H](C)NC(=O)[C@@H](C)NC(=O)[C@@H](CC(C)C)N(C)C(=O)[C@@H](C(C)C)NC(=O)[C@H](CC(C)C)N(C)C(=O)[C@@H](C)N(C)C1=O` (relative stereo) [Compound O, [(3R,4R,5S)-4-Hydroxy-3-methyl-5-(methylamino)-1-(N-(3aR*,6aS*)-2-methyloctahydropyrrolo[3,4-c]pyrrolo)-hexanoic acid]^1[(R)-methyl-Sar]^3 cyclosporin A], for which the IC50 in data set [1] (1:1 complex with inhibitor) was above 10000 nM. For the same compound, the Ki in data set [2] (cyclophilin A, 10 °C) is 8.2 nM. Moreover, the solubility at 18 h in data set [3] is on record as above 100 µM. Regarding `CCC1NC(=O)C(C(O)C(C)CCN2CCCOCC2)N(C)C(=O)C(C(C)C)N(C)C(=O)C(CC(C)C)N(C)C(=O)C(CC(C)C)N(C)C(=O)C(C)NC(=O)C(C)NC(=O)C(CC(C)C)N(C)C(=O)C(C(C)C)NC(=O)C(CC(C)C)N(C)C(=O)C(COCCN(CC)CC)N(C)C1=O` [Compound AD, [(3R,4R,5S)-4-Hydroxy-3-methyl-5-(methylamino)-1-N-homomorpholino-hexanoic acid]^1[(R)-2-diethylaminoethyloxymethyl-Sar]^3 cyclosporin A], the IC50 in data set [1] (1:1 complex with inhibitor) was above 10000 nM. Also, the Ki in data set [2] (cyclophilin A, 10 °C) was 18 nM. With `CC[C@H]1NC(=O)[C@@H]([C@H](O)[C@H](C)CCCC(=O)N2CCOCC2)N(C)C(=O)[C@@H](C(C)C)N(C)C(=O)[C@@H](CC(C)C)N(C)C(=O)[C@@H](CC(C)C)N(C)C(=O)[C@H](C)NC(=O)[C@@H](C)NC(=O)[C@@H](CC(C)C)N(C)C(=O)[C@@H](C(C)C)NC(=O)[C@H](CC(C)C)N(C)C(=O)CN(C)C1=O` [Compound E, [(5R,6R,7S)-6-hydroxy-5-methyl-7-(methylamino)-1-N-morpholino-1-oxo-octanoic acid]^1 cyclosporin A], the IC50 in data set [1] (1:1 complex with inhibitor) was above 10000 nM.

Turning to `CCC1NC(=O)C(C(O)C(C)CCN2CCCCO2)N(C)C(=O)C(C(C)C)N(C)C(=O)C(CC(C)C)N(C)C(=O)C(CC(C)C)N(C)C(=O)C(C)NC(=O)C(C)NC(=O)C(CC(C)C)N(C)C(=O)C(C(C)C)NC(=O)C(CC(C)C)N(C)C(=O)C(C)N(C)C1=O` [Compound ED, [(3R,4R,5S)-4-Hydroxy-3-methyl-5-(methylamino)-1-([1,2]oxazinan-2-yl)-hexanoic acid]^1[(R)-methyl-Sar]^3 cyclosporin A], the IC50 in data set [1] was above 10000 nM. Further, in data set [2] (setting [5]), the Ki amounted to 3.8 nM.

For the compound `CCC1NC(=O)C(C(O)C(C)CCN2CCn3cc(C(F)(F)F)nc3C2)N(C)C(=O)C(C(C)C)N(C)C(=O)C(CC(C)C)N(C)C(=O)C(CC(C)C)N(C)C(=O)C(C)NC(=O)C(C)NC(=O)C(CC(C)C)N(C)C(=O)C(C(C)C)NC(=O)C(CC(C)C)N(C)C(=O)C(C)N(C)C1=O` [Compound EE, [(3R,4R,5S)-4-Hydroxy-3-methyl-5-(methylamino)-1-(2-trifluoromethyl-5,6-dihydro-8H-imidazo[1,2-a]pyrazin-7-yl)-hexanoic acid]^1[(R)-methyl-Sar]^3 cyclosporin A], the IC50 in data set [1] is above 10000 nM. For the same compound, the Ki in data set [2] (setting [5]) is 9.1 nM. Regarding `CC[C@H]1NC(=O)[C@@H]([C@H](O)[C@H](C)CCN2CCOCC2)N(C)C(=O)[C@@H](C(C)C)N(C)C(=O)[C@@H](CC(C)C)N(C)C(=O)[C@@H](CC(C)C)N(C)C(=O)[C@H](C)NC(=O)[C@@H](C)NC(=O)[C@@H](CC(C)C)N(C)C(=O)[C@@H](C(C)C)NC(=O)[C@H](CC(C)C)N(C)C(=O)[C@@H](SC)N(C)C1=O` [Compound K, [(3R,4R,5S)-4-hydroxy-3-methyl-5-(methylamino)-1-N-morpholino-hexanoic acid]^1[(S)-thiomethyl-Sar]^3 cyclosporin A], the IC50 in data set [1] (1:1 complex with inhibitor) was above 10000 nM.

`CC[C@H]1NC(=O)[C@@H]([C@H](O)[C@H](C)CCCC(=O)N2CCN(C)CC2)N(C)C(=O)[C@@H](C(C)C)N(C)C(=O)[C@@H](CC(C)C)N(C)C(=O)[C@@H](CC(C)C)N(C)C(=O)[C@H](C)NC(=O)[C@@H](C)NC(=O)[C@@H](CC(C)C)N(C)C(=O)[C@@H](C(C)C)NC(=O)[C@H](CC(C)C)N(C)C(=O)[C@@H](C)N(C)C1=O` [Compound T, [(5R,6R,7S)-6-hydroxy-5-methyl-7-(methylamino)-1-(4-methylpiperazin-1-yl)-1-oxo-octanoic acid]^1[(R)-methyl-Sar]^3 cyclosporin A]: the inhibition constant Ki in data set [4] was found to be 5 nM. Besides, in data set [3], the solubility at 18 h was above 100 µM. Take `CC[C@H]1NC(=O)[C@@H]([C@H](O)[C@H](C)CCCC(=O)N(CC)CC)N(C)C(=O)[C@@H](C(C)C)N(C)C(=O)[C@@H](CC(C)C)N(C)C(=O)[C@@H](CC(C)C)N(C)C(=O)[C@H](C)NC(=O)[C@@H](C)NC(=O)[C@@H](CC(C)C)N(C)C(=O)[C@@H](C(C)C)NC(=O)[C@H](CC(C)C)N(C)C(=O)[C@@H](C)N(C)C1=O` [Compound U, [(5R,6R,7S)-6-hydroxy-5-methyl-7-(methylamino)-1-diethylamino-1-oxo-octanoic acid]^1[(R)-methyl-Sar]^3 cyclosporin A]: in data set [1] (1:1 complex with inhibitor), the IC50 was above 10000 nM. In addition, the Ki in data set [2] (cyclophilin A, 10 °C) stood at 4 nM. `CCC1NC(=O)C(C(O)C(C)CCCC(=O)NCCS(=O)(=O)N(C)C)N(C)C(=O)C(C(C)C)N(C)C(=O)C(CC(C)C)N(C)C(=O)C(CC(C)C)N(C)C(=O)C(C)NC(=O)C(C)NC(=O)C(CC(C)C)N(C)C(=O)C(C(C)C)NC(=O)C(CC(C)C)N(C)C(=O)C(C)N(C)C1=O` [Compound W, [(5R,6R,7S)-6-hydroxy-5-methyl-7-(methylamino)-1-(2-{sulfonic acid dimethylamide}-ethylamino)-1-oxo-octanoic acid]^1[(R)-methyl-Sar]^3 cyclosporin A]: the Ki in data set [4] came to 1.9 nM. In addition, in data set [3], the solubility at 18 h was above 100 µM. The like results for `CCC1NC(=O)C(C(O)C(C)CCCC(=O)NCCc2c[nH]cn2)N(C)C(=O)C(C(C)C)N(C)C(=O)C(CC(C)C)N(C)C(=O)C(CC(C)C)N(C)C(=O)C(C)NC(=O)C(C)NC(=O)C(CC(C)C)N(C)C(=O)C(C(C)C)NC(=O)C(CC(C)C)N(C)C(=O)C(C)N(C)C1=O` [Compound Y, [(5R,6R,7S)-6-hydroxy-5-methyl-7-(methylamino)-1-(2-{1H-imidazol-4-yl}-ethylamino)-1-oxo-octanoic acid]^1[(R)-methyl-Sar]^3 cyclosporin A] were, in that order, 4.1 nM and above 100 µM. For `CC[C@H]1NC(=O)[C@@H]([C@H](O)[C@H](C)CCCC(=O)N2CCS(=O)(=O)CC2)N(C)C(=O)[C@@H](C(C)C)N(C)C(=O)[C@@H](CC(C)C)N(C)C(=O)[C@@H](CC(C)C)N(C)C(=O)[C@H](C)NC(=O)[C@@H](C)NC(=O)[C@@H](CC(C)C)N(C)C(=O)[C@@H](C(C)C)NC(=O)[C@H](CC(C)C)N(C)C(=O)[C@@H](C)N(C)C1=O` [Compound Z, [(5R,6R,7S)-6-hydroxy-5-methyl-7-(methylamino)-1-({1,1-dioxo}thiomorpholin-4-yl)-1-oxo-octanoic acid]^1[(R)-methyl-Sar]^3 cyclosporin A], the Ki in data set [4] was 2 nM. In data set [3], the solubility at 18 h is recorded as above 100 µM. For the compound `CC[C@H]1NC(=O)[C@@H]([C@H](O)[C@H](C)CCCC(=O)NCC2COCCO2)N(C)C(=O)[C@@H](C(C)C)N(C)C(=O)[C@@H](CC(C)C)N(C)C(=O)[C@@H](CC(C)C)N(C)C(=O)[C@H](C)NC(=O)[C@@H](C)NC(=O)[C@@H](CC(C)C)N(C)C(=O)[C@@H](C(C)C)NC(=O)[C@H](CC(C)C)N(C)C(=O)[C@@H](C)N(C)C1=O` (some centres unmarked) [Compound ZX], in data set [4], the Ki came out at 2.3 nM. Also, the solubility at 18 h in data set [3] is on record as above 100 µM.

As to `CC[C@H]1NC(=O)[C@@H]([C@H](O)[C@H](C)CCCC(=O)NCCOC)N(C)C(=O)[C@@H](C(C)C)N(C)C(=O)[C@@H](CC(C)C)N(C)C(=O)[C@@H](CC(C)C)N(C)C(=O)[C@H](C)NC(=O)[C@@H](C)NC(=O)[C@@H](CC(C)C)N(C)C(=O)[C@@H](C(C)C)NC(=O)[C@H](CC(C)C)N(C)C(=O)[C@@H](C)N(C)C1=O` [Compound ZY, [(5R,6R,7S)-6-hydroxy-5-methyl-7-(methylamino)-1-(2-methoxyethylamino)-1-oxo-octanoic acid]1[(R)-methyl-Sar]3 cyclosporin A], the Ki in data set [4] was 5.7 nM. Further, the “Water Solubility Assay, concentration at which the compound remains in solution” value in data set [3] lay in the range of 75 to 100 µM.
